Experimental data as given in patent US20140161720A1, “TREATMENT OF ANGIOGENIC- OR VASCULAR-ASSOCIATED DISEASES” (THE GENERAL HOSPITAL CORPORATION, priority 2011, published 2014).

Test system: MDA-MB-231 cells
Assay: Cell spreading and F-actin visualization on fibronectin (phalloidin)
Format: cell-based, human
Conditions: 5 μM, two hours
From the text: FIGS. 1A to 1E show a schematics of an exemplary drug screen for antivascular agent described herein, e.g., dehydro-alpha-lapachone (DAL) and effects of DAL on cell adhesion properties. […] Of the 50,000 compounds screened, 86 compounds were selected to test in the secondary assays. Only compounds that made MDA-MB-231 cells more rounded, with less spreading than control cells, and interfered with actin regulation were selected for further study. All these selected small molecules were further passed through a number of filtering toxicity assays to eliminate toxic compounds. […] The non-toxic compounds were then analyzed in a zebrafish model. […]
A cell-based readout system was used for compound selection. […] As a further test of toxicity, DAL was injected intraperitoneally at 100 mg/kg in SCID mice and signs of toxicity including cachexia, ruffled fur, diarrhea, anorexia, skin ulceration, and toxic death were monitored.
A screening strategy was developed to identify potential agents that target adhesion of endothelial cells or cancer cells to their substrate. […] The initial screening step quantified the number of cells remaining attached to their wells following incubation with each compound and subsequent washing steps. […] The agents that affect cell adhesion can be monitored through remodeling of actin filaments. […] Changes in actin assembly and cell shape after treatment with 12 compounds were determined. […]

`CC1(C)C=CC2=C(O1)C(=O)c1ccccc1C2=O` [DAL, dehydro-alpha-lapachone] was tested, and the “cell spreading, size and shape on fibronectin-coated plates” value was “significantly smaller than control cells and had a rounded shape” and the F-actin distribution (phalloidin) was “actin was accumulated close to the membrane”.
